The text below walks through data of ChEMBL document CHEMBL1122011, “Synthesis of N-(carbonylamino)-1,2,3,6-tetrahydropyridines with analgesic, antiinflammatory, and hyperglycemic activity” (J Med Chem, 1982).

The subject of experiment [1] is Rattus norvegicus. In words: % change in blood glucose concentration after 2 hr post treatment at 100 mg/kg, po. It is filed as functional. Set-up: unit: %.
The subject of experiment [2] is Rattus norvegicus. In words: Inhibitory against carrageenan induced paw edema in rat at 120 mg/kg, sc dose after 5 hr. In kind it is functional. Conditions: route subcutaneous.
Experiment [3] concerns Rattus norvegicus. In words: Inhibitory against carrageenan induced paw edema in rat at 120 mg/kg, sc dose after 3h. It is filed as functional. The settings on record: route subcutaneous.
Experiment [4] concerns Mus musculus. In words: Analgesic activity in mice using phenylquinone writhing test at 120 mg/kg, sc dose. In kind it is functional. Conditions: route subcutaneous.
For experiment [5], the system named is Rattus norvegicus. In words: (§1) % change in blood glucose concentration after 4 hr post treatment at 100 mg/kg, po. It is filed as functional. Set-up: unit: %.
Experiment [6] relates to Mus musculus. In words: Analgesic activity in mice using phenylquinone writhing test at 60 mg/kg, sc dose. Conditions: route subcutaneous. In kind it is functional.
Experiment [7] has as its system Rattus norvegicus. In words: % change in blood glucose concentration after 2 hr post treatment at 50 mg/kg, po. In kind it is functional.
Experiment [8] deals with Mus musculus. In words: Analgesic activity in mice using phenylquinone writhing test at 30 mg/kg, sc dose. In kind it is functional. The settings on record: route subcutaneous.
Experiment [9] deals with Mus musculus. In words: Analgesic activity in mice using phenylquinone writhing test at 0.00075 mg/kg, sc dose. It is filed as functional. The settings on record: route subcutaneous.
Experiment [10] concerns Rattus norvegicus. In words: % change in blood glucose concentration after 4 hr post treatment at 60 mg/kg, po. In kind it is functional.
Experiment [11] relates to Mus musculus. In words: Effective dose in mouse hotplate test at 55+/-0.5 degree Centigrade after 30 min of dosing. It is filed as functional. The settings on record: 0.5 h.
For experiment [12], the system named is Mus musculus. In words: Analgesic activity in mice using phenylquinone writhing test at 3mg/kg, sc dose. In kind it is functional.
Experiment [13] relates to Mus musculus. In words: Analgesic activity in mice using phenylquinone writhing test at 3 mg/kg, sc dose. 0.6 mg/kg Noxolone was prior to compound injection. In kind it is functional.
In experiment [14] the test system is Mus musculus. In words: Analgesic activity in mice using phenylquinone writhing test at 50 mg/kg, sc dose. It is filed as functional. Conditions: route subcutaneous.
Experiment [15] concerns Mus musculus. In words: Analgesic activity in mice using phenylquinone writhing test at 16.5 mg/kg, sc dose. It is filed as functional. Conditions: route subcutaneous.
Experiment [16] relates to Rattus norvegicus. In words: % change in blood glucose concentration after 2 hr post treatment at 36.5 mg/kg, po. It is filed as functional.
In experiment [17] the test system is Rattus norvegicus. In words: % change in blood glucose concentration after 4 hr post treatment at 53 mg/kg, po. It is filed as functional.
Experiment [18] concerns Rattus norvegicus. In words: % change in blood glucose concentration after 4 hr post treatment at 30 mg/kg, po. It is filed as functional.
Experiment [19] deals with Rattus norvegicus. In words: % change in blood glucose concentration after 2 hr post treatment at 17 mg/kg, po. In kind it is functional.
The subject of experiment [20] is Mus musculus. In words: Analgesic activity in mice using phenylquinone writhing test at 0.0075 mg/kg, sc dose. In kind it is functional. The settings on record: route subcutaneous.
Experiment [21] has as its system Mus musculus. In words: Analgesic activity in mice using phenylquinone writhing test at 10 mg/kg, sc dose. It is filed as functional. Conditions: route subcutaneous.
Experiment [22] concerns Mus musculus. In words: Analgesic activity in mice using phenylquinone writhing test at 10 mg/kg, sc dose. 2 mg/kg Noxolone was prior to compound injection. In kind it is functional.
Experiment [23] concerns Mus musculus. In words: Inhibitory against carrageenan induced paw edema in mice at 12 mg/kg, sc dose after 3h. It is filed as functional. Conditions: route subcutaneous.
In experiment [24] the test system is Mus musculus. In words: Inhibitory against carrageenan induced paw edema in mice at 12 mg/kg, sc dose after 5 hr. In kind it is functional. The settings on record: route subcutaneous.
For experiment [25], the species on record is Mus musculus. In words: animal or person. The settings on record: sc, read-out: Inhibition.
Description: Analgesic activity in mice using phenylquinone writhing test at 0.038 mg/kg, sc dose
The subject of experiment [26] is Rattus norvegicus. In words: Inhibitory against carrageenan induced paw edema in rat at 128 mg/kg, sc dose after 5 hr. It is filed as functional. The settings on record: route subcutaneous.
The subject of experiment [27] is Rattus norvegicus. The experiment is described as §1. It is filed as functional.
Experiment [28] has as its system Rattus norvegicus. In words: Inhibitory against carrageenan induced paw edema in rat at 128 mg/kg, sc dose after 3h. The settings on record: route subcutaneous. It is filed as functional.
In experiment [29] the test system is Mus musculus. In words: Analgesic activity in mice using phenylquinone writhing test at 14.5 mg/kg, sc dose. It is filed as functional. The settings on record: route subcutaneous.
Experiment [30] deals with Mus musculus. In words: Analgesic activity in mice using phenylquinone writhing test at 56 mg/kg, sc dose. In kind it is functional. The settings on record: route subcutaneous.
Experiment [31] relates to Rattus norvegicus. In words: % change in blood glucose concentration after 2 hr post treatment at 41 mg/kg, po. In kind it is functional.
The test system of experiment [32] is Mus musculus. In words: Analgesic activity in mice using phenylquinone writhing test at 25 mg/kg, sc dose. In kind it is functional. Conditions: route subcutaneous.
The test system of experiment [33] is Mus musculus. In words: Inhibitory against carrageenan induced paw edema in mice at 128 mg/kg, sc dose after 5 hr. In kind it is functional. Conditions: route subcutaneous.
Experiment [34] concerns Mus musculus. In words: Inhibitory against carrageenan induced paw edema in mice at 128 mg/kg, sc dose after 3h. It is filed as functional. Conditions: route subcutaneous.
Experiment [35] concerns Rattus norvegicus. In words: % change in blood glucose concentration after 4 hr post treatment at 128 mg/kg, po. In kind it is functional.
In experiment [36] the test system is Mus musculus. In words: Analgesic activity in mice using phenylquinone writhing test at 128 mg/kg when administered subcutaneously. It is filed as functional. Conditions: sc, route subcutaneous.
Experiment [37] relates to Rattus norvegicus. In words: % change in blood glucose concentration after 2 hr post treatment at 128 mg/kg, po. It is filed as functional.

In the case of `O=C(CCc1ccccc1)NN1CC=CCC1`, the figures for the Hyperglycemic activity in the experiment on Rattus norvegicus [1] and with Rattus norvegicus [5] were 27 and 25, respectively. In addition, the values for the inhibition in vivo at 120 mg/kg with Rattus norvegicus [2], in the experiment on Rattus norvegicus [3] and with Mus musculus [4] were 83%, 83% and 42%, respectively.

Take `O=C(Cc1ccc2c(c1)OCO2)NN1CC=CCC1`: the Hyperglycemic activity with Rattus norvegicus [1] is 7; in the experiment with Rattus norvegicus [5] it was 21. Besides, the inhibition in vivo at 120 mg/kg with Rattus norvegicus [2] and in the experiment on Rattus norvegicus [3] was 0% each time. The inhibition in vivo at 60 mg/kg in the experiment on Mus musculus [6] was found to be 80%.

As to `O=C(NN1CC=CCC1)C1CCCCCC1`, the Hyperglycemic activity with Rattus norvegicus [7] was found to be 50; in the experiment on Rattus norvegicus [1] it was 100; in the experiment with Rattus norvegicus [10], 50; in the experiment with Rattus norvegicus [5], 82. The compound further returned an inhibition in vivo at 30 mg/kg in the experiment on Mus musculus [8] of 98%. Further, the inhibition in vivo at 0.00075 mg/kg in the experiment on Mus musculus [9] worked out at 50%.

For the compound `CCOC(=O)NN1CC=CCC1`, in the experiment with Mus musculus [8], the inhibition in vivo at 30 mg/kg was found to be 99%. For the same compound, the Hyperglycemic activity in the experiment on Rattus norvegicus [1] was 27; in the experiment with Rattus norvegicus [5], 91. Further, it took a dose of 19.5 mg/kg to reach the 50% effect level in the experiment on Mus musculus [11] (ED50). In addition, in the experiment on Mus musculus [12], the inhibition in vivo at 3 mg/kg stood at 85.6%. Further, the Inhibition in the experiment on Mus musculus [13] was found to be 86%.

In the experiment with Mus musculus [14], `CC(=O)Oc1ccccc1C(=O)O` [ASPIRIN] showed an inhibition in vivo at 50 mg/kg of 50%.

`O=C(NN1CC=CCC1)C1CCCCC1`: in the experiment with Mus musculus [15], the inhibition in vivo at 16.5 mg/kg came out at 50%. In addition, the inhibition in vivo at 120 mg/kg with Rattus norvegicus [2] stood at 84%; with Rattus norvegicus [3], 50%. For the same compound, the Hyperglycemic activity in the experiment on Rattus norvegicus [16] and in the experiment on Rattus norvegicus [17] was 50 in each case.

Turning to `O=C(COc1cccc2ccccc12)NN1CC=CCC1`, in the experiment with Mus musculus [8], the inhibition in vivo at 30 mg/kg turned out to be 76%. The Hyperglycemic activity is listed as 9 in the experiment on Rattus norvegicus [1] and 14 in the experiment with Rattus norvegicus [5].

In the experiment with Mus musculus [8], `O=C(NN1CC=CCC1)c1cccc(C(=O)NN2CC=CCC2)n1` came in with an inhibition in vivo at 30 mg/kg of 60%. Further, the Hyperglycemic activity with Rattus norvegicus [1] is listed as -8; in the experiment on Rattus norvegicus [5], 10.

`O=C(NN1CC=CCC1)c1ccco1`: the Hyperglycemic activity came to 50 with Rattus norvegicus [18], 181 in the experiment with Rattus norvegicus [1], 50 in the experiment on Rattus norvegicus [19] and 182 in the experiment on Rattus norvegicus [5]. In the experiment with Mus musculus [8], this compound gave an inhibition in vivo at 30 mg/kg of 99%. This compound yielded an inhibition in vivo at 0.0075 mg/kg in the experiment with Mus musculus [20] of 50%. The compound also displayed an inhibition in vivo at 10 mg/kg with Mus musculus [21] of 98.4%. In addition, the Inhibition in the experiment with Mus musculus [22] is on record as 99.2%.

`COc1ccc2c(c1)c(CC(=O)O)c(C)n2C(=O)c1ccc(Cl)cc1` [INDOMETHACIN]: the inhibition in vivo at 12 mg/kg with Mus musculus [23] amounted to 17%; in the experiment on Mus musculus [24], 83%.

As to `O=C(NN1CC=CCC1)C1CC1`, the inhibition in vivo at 30 mg/kg in the experiment on Mus musculus [8] was 100%. Also, the Hyperglycemic activity with Rattus norvegicus [1] amounted to 66; in the experiment on Rattus norvegicus [5], 111.

For the compound `CN1CC[C@]23c4c5ccc(O)c4O[C@H]2[C@@H](O)C=C[C@H]3[C@H]1C5`, the inhibition in vivo at 0.038 mg/kg in the experiment listed under Mus musculus [25] came to 50%.

Turning to `O=C(Cc1cccnc1)NN1CC=CCC1`, the inhibition in vivo at 128 mg/kg in the experiment with Rattus norvegicus [26] and in the experiment on Rattus norvegicus [28] was 50% in each case. Also, the Hypoglycemic activity with Rattus norvegicus [27] was -6. In the experiment on Rattus norvegicus [1], this compound had a Hyperglycemic activity of 0. Further, the inhibition in vivo at 14.5 mg/kg in the experiment with Mus musculus [29] is 50%.

On to `CCC(=O)O[C@](Cc1ccccc1)(c1ccccc1)[C@H](C)CN(C)C` [PROPOXYPHENE], for which, in the experiment on Mus musculus [30], the inhibition in vivo at 56 mg/kg stood at 50%.

Take `O=C(NN1CC=CCC1)C1CCCC1`: the inhibition in vivo at 30 mg/kg in the experiment with Mus musculus [8] is 98%. For the same compound, the Hyperglycemic activity in the experiment on Rattus norvegicus [1] was determined as 54; in the experiment on Rattus norvegicus [5], 22.

With `O=C(COc1ccccc1)NN1CC=CCC1`, the Hyperglycemic activity in the experiment on Rattus norvegicus [31] and in the experiment with Rattus norvegicus [17] was 50 in each case. The inhibition in vivo at 120 mg/kg with Rattus norvegicus [2] was found to be 80%; with Rattus norvegicus [3], 83%. Also, the inhibition in vivo at 25 mg/kg in the experiment with Mus musculus [32] was determined as 50%.

For the compound `O=C(NN1CC=CCC1)C12C[C@H]3C[C@@H](C1)C[C@@H](C2)C3`, the inhibition in vivo at 30 mg/kg in the experiment with Mus musculus [8] is 86%. Further, the figures for the Hyperglycemic activity in the experiment on Rattus norvegicus [1] and with Rattus norvegicus [5] were 33 and 22, respectively.

Regarding `CC(C)(C)C(=O)NN1CC=CCC1`, in the experiment on Mus musculus [8], the inhibition in vivo at 30 mg/kg amounted to 100%. The Hyperglycemic activity in the experiment with Rattus norvegicus [1] was 70; in the experiment on Rattus norvegicus [5], 101.

For `O=C(NN1CC=CCC1)c1cccc[n+]1[O-]`, the inhibition in vivo at 128 mg/kg is 0% with Mus musculus [33], 34% with Mus musculus [34] and 55% in the experiment with Mus musculus [36]. Further, the Hypoglycemic activity in the experiment with Rattus norvegicus [35] and in the experiment with Rattus norvegicus [37] was below 20 throughout.

Compound `Cn1cccc1C(=O)NN1CC=CCC1` gave an inhibition in vivo at 30 mg/kg with Mus musculus [8] of 90%. Further, the Hyperglycemic activity in the experiment with Rattus norvegicus [1] was 35; with Rattus norvegicus [5] it was 25.

The compound `O=C(NN1CC=CCC1)c1cccs1` had an inhibition in vivo at 30 mg/kg in the experiment with Mus musculus [8] of 77%. Moreover, the Hyperglycemic activity in the experiment on Rattus norvegicus [1] is on record as 116; in the experiment with Rattus norvegicus [5] it was 64.

In the experiment on Mus musculus [8], `CC(=O)NN1CC=CCC1` displayed an inhibition in vivo at 30 mg/kg of 99%. The Hyperglycemic activity in the experiment with Rattus norvegicus [1] came to 35; with Rattus norvegicus [5], 36.
